“Also recorded” adds a separate entry of the source. Read-outs that look alike come from different tables or passages of the source.
Columns and labels:
[1] = target: T1, Smo (Drosophila melanogaster, UniProt P91682); assay: Drosophila wing disc assay, Smo staining; details: for ectopic Smo accumulation / stabilization: LppRNAi wing discs, DOPC liposomes, 2 hours; for effects on Hh signaling in Drosophila: wing discs, judged from Smo and Ci155 accumulation
T1 construct: from tissue; host or cells: explanted wing imaginal discs from wild type and LppRNAi Drosophila larvae
T1 sequence (P91682 32-1036): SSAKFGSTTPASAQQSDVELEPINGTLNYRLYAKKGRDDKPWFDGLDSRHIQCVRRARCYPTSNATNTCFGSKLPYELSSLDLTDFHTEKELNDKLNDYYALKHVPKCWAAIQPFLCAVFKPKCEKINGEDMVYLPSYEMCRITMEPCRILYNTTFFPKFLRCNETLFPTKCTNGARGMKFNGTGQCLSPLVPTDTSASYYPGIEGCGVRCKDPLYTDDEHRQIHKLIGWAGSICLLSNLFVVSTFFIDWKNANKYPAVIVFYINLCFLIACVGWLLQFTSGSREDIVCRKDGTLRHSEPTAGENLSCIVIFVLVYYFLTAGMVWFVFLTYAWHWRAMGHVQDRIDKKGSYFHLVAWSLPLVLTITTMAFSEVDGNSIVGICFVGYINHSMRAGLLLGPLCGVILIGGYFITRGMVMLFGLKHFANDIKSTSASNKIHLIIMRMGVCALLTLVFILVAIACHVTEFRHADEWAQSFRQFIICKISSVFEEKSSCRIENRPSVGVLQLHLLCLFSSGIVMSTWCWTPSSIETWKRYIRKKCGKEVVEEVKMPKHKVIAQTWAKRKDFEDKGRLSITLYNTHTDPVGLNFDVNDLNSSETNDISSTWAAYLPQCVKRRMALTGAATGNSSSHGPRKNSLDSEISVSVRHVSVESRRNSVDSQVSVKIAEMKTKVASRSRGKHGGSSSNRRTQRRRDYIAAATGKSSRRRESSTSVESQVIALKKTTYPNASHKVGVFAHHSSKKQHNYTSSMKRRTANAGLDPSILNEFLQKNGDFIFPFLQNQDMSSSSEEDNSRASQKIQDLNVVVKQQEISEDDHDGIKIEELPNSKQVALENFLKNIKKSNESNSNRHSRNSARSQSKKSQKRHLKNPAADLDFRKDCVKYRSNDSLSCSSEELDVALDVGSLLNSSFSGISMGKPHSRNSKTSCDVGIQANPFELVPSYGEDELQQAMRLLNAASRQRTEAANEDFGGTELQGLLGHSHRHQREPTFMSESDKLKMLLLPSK
Description: (§1) Imaginal discs were fixed and stained as previously described (Marois et al., 2006). Antibodies were diluted as follows: anti-Ci 2A1 1:10 (Wang and Holmgren, Development, 126(22): p. 5097-106 (1999)), anti-Smo 1:50 (Lum et al., Mol Cell, 12(5): p. 1261-74 (2003)).
(§2) All quantified immunostaining was performed on discs that were dissected, fixed, stained and imaged in parallel using the same microscope settings. To quantify Ci155 and Smo staining intensities, three apical sections 0.7 µm apart were projected using maximal intensity in ImageJ. For each image, two rectangles of 100 pixels parallel to the A/P axis by 351 pixels parallel to the D/V axis were selected and centered at the A/P boundary in ventral and dorsal compartments. Average pixel intensity was determined as a function of distance from A/P boundary using PlotProfile and plotted using Microsoft Excel. All A/P boundaries were determined according to anti-Ci155 coimmunostaining. To estimate the significance of changes in staining intensities in discs of different genotypes, we measured Smo or Ci staining intensity at the same distance from the A/P boundary in each disc and calculated p values using Excel.
(§3) The assay was performed as previously described (Khaliullina et al., Development, 136(24): p. 4111-21 (2009)). Endocannabinoids were applied in DOPC vesicles at concentrations of up to 200µM.

[2] = system: Ci155; assay: Drosophila wing disc assay, Ci155 staining; details: LppRNAi wing discs, DOPC liposomes, 2 hours
Description: as §1, §2, §3

[3] = system: Shh signaling in ShhLIGHT2 cells; assay: ShhLIGHT2 signaling assay (Gli-responsive Firefly:Renilla luciferase ratio); type: cell-based, mammalian; details: for effect on signaling in ShhLIGHT2 cells (pure compounds, column fractions): cells stimulated with non-lipoprotein-associated Shh; for inhibits Shh signaling: at 30µM
Description: HeLa cells were passaged in DMEM with 10% fetal bovine serum (FBS, Gibco), 50 U/ml penicillin and 50µg/ml streptomycin (Gibco). To prepare non-lipoprotein-associated Shh, HeLa cells were transfected with plasmids encoding human Shh using polyethylenimine (Polysciences) in OptiMem (Invitrogen), then switched Shh-transfected HeLa cells to serum-free media (DMEM +1% Insulin-Transferrin-Selenium mixture (ITS-X, Gibco) 4 h post transfection. After 48 h, conditioned media were centrifuged at 1000 g for 20 min and concentrated using Amicon Ultra -10K (Millipore) for use in the signaling assay. Identically treated media from nontransfected HeLa cells were used as controls.
Shh-LIGHT2 cells (Taipale et al., 2000) were maintained in DMEM + 10% FBS, 150 µg/ml zeocin (Invitrogen) and 400 µg/ml G418 (Invitrogen). 24 h prior to assay, cells were plated at […] in 96-well plates. Cells were then switched to a serum-free medium consisting of DMEM + 1% ITS-X, and supplemented with combinations of Shh and different lipids. Lipids were added in DMSO. Luciferase activity was assayed in cell lysates after 24 h, as instructed by the manufacturer (Dual Glo Luciferase Assay, Promega).

[4] = Shh Light2, ShhLIGHT2 cells stimulated with Shh, serum-free medium, lipid added in DMSO, luciferase after 24 h, read-out: EC50 (inhibits Shh signaling)
[5] = Shh Light2, 24 h, read-out: EC50 (inhibits Shh signaling)

With `CCCCCCCC/C=C\CCCCCCCC(=O)NCCO` [N-acylethanolamide (18:1)] the “ectopic Smo accumulation / stabilization” value [1] was “not decreased” and the “ectopic Ci155 accumulation” value [2] was “not decreased”.
In the case of `CCCCCCCCCCCCCCCC(=O)NCCc1ccc(O)c(O)c1` [N-acyl dopamine (16:0)], the “ectopic Smo accumulation / stabilization” value [1] is reported as “no activity” and the “ectopic Ci155 accumulation” value [2] is reported as “no activity”.
`C=C(C)[C@@H]1CCC(C)=C[C@H]1c1c(O)cc(CCCCC)cc1O` [cannabidiol] showed an EC50 [3, 4] of under 1 µM.
In the case of `CCCCCCCCCCCCCCCC(=O)NCCO` [N-acylethanolamide (16:0)], the “ectopic Smo accumulation / stabilization” value [1] is reported as “reverses ectopic Smo stabilization; also recorded: completely reverses ectopic accumulation of Smo”, the “effects on Hh signaling in Drosophila” value [1] is reported as “strong negative effects” and the “ectopic Ci155 accumulation” value [2] is reported as “partially reverses Ci155 accumulation; also recorded: significantly reverses ectopic accumulation of Ci155”.
With `CC(C)CCC[C@@H](C)[C@H]1CC[C@H]2C3=CC=C4C[C@@H](O)CC[C@]4(C)[C@H]3CC[C@]12C` [7-dehydrocholesterol, reference compound] the “effect on signaling in ShhLIGHT2 cells (pure compounds, column fractions)” value (“effect … (pure compounds, column fractions)” for short) [3] was “inhibited signaling” and the “ectopic Smo accumulation / stabilization” value [1] was “neither reversed Smo accumulation”.
With `CCCCCCCCCCCCCCCC(=O)NC(CO)C(=O)O` (centres unmarked) [N-acyl serine (16:0)] the EC50 ([3]; Shh Light2, ShhLIGHT2 cells stimulated with Shh, serum-free medium, lipid added in DMSO, read-out: EC50 (increases Shh signaling)) was 0.5 µM, the “increases Shh signaling by” value ([3]; Shh-induced Firefly:Renilla increase normalized to 100) was 40% and the “effect … (pure compounds, column fractions)” value [3] was “stimulated signaling”. The “ectopic Smo accumulation / stabilization” value [1] was “no activity” and the “ectopic Ci155 accumulation” value [2] was “no activity”.
Molecule `CCCCCc1cc(O)c2c(c1)OC(C)(C)c1ccc(C)cc1-2` [cannabinol] has an EC50 [3, 4] of under 1 µM.
In the case of `CCCCC/C=C\C/C=C\C/C=C\C/C=C\CCCC(=O)NCCO` [N-acylethanolamide (20:4), arachidonyl ethanolamide], the “ectopic Smo accumulation / stabilization” value [1] is reported as “not decreased” and the “ectopic Ci155 accumulation” value [2] is reported as “not decreased”.
With `CCCCCCCCCCCCCCCCCC(=O)NCCO` [N-acylethanolamide (18:0)] the “ectopic Smo accumulation / stabilization” value [1] was “not decreased” and the “ectopic Ci155 accumulation” value [2] was “not decreased”.
For `CCCCC/C=C\C/C=C\CCCCCCCC(=O)NCCO` [N-acylethanolamide (18:2), linoleylethanolamide], the “EC50 decreased by addition of FAAH inhibitor” value [3] was over 10 fold, the “EC50 decreased by pre-incubation with lipoproteins” value [3] was over 10 fold and the EC50 [3, 5] was about 15 µM. For the same molecule, the EC50 ([3]; Shh Light2, in presence of PF-3845, a selective FAAH inhibitor, read-out: EC50) was 0.5 µM, the “inhibits Shh signaling” value [3] was “almost completely” and the “EC50 decreased by pre-incubation with lipoproteins” value ([3]; pre-incubated with lipoproteins versus added in DMSO without prior incubation) was “more than 10 fold”.
With `C=C1CC[C@H](O)C/C1=C/C=C1\CCC[C@]2(C)[C@@H]([C@H](C)CCCC(C)C)CC[C@@H]12` [vitamin D3, reference compound] the “effect … (pure compounds, column fractions)” value [3] was “inhibited signaling” and the “ectopic Smo accumulation / stabilization” value [1] was “neither reversed Smo accumulation”.
For `CCCCC/C=C\C/C=C\C/C=C\C/C=C\CCCCOC(CO)CO` [2-glyceryl ether (20:4), 2-arachidonyl glyceryl ether], the EC50 [3, 4] was 15 µM, the “inhibits Shh signaling” value [3] was “almost completely” and the “ectopic Smo accumulation / stabilization” value [1] was “no activity”. The “effects on Hh signaling in Drosophila” value [1] was “complete inactivity” and the “ectopic Ci155 accumulation” value [2] was “no activity”.
`CCCCCCCCCCCCCCCCCC(=O)NCCc1ccc(O)c(O)c1` [N-acyl dopamine (18:0)] gave an EC50 [3, 5] of 5 µM and an inhibition at 30 µM ([3]; Shh Light2, read-out: inhibits Shh signaling by) of 80%.

Source: patent EP2719375A1, “Cannabinoids for the treatment of cancers dependent on hedgehog mechanisms” (Max-Planck-Gesellschaft zur Förderung der Wissenschaften …, priority 2012, dated 2014)
